# Source: patent US20260048062A1, “FUSED AMINO PYRIMIDINE COMPOUNDS FOR TREATMENT OF PSYCHOSIS AND PSYCHOTIC DISORDERS” (Ovid Therapeutics Inc., priority 2024, published 2026)
# Legend:
# KCC2 = biological target: T1, KCC2 (Homo sapiens, UniProt Q9H2X9); experiment: FLIPR Tl+ flux assay, HEK-293 cells expressing KCC2; assay type: cell-based; settings: saturating concentration of 3 μM, 1% BCD vehicle
# T1 construct: expressed in transfected cells; host or cells: HEK-293 (ATCC CRL-1573), transient transfection
# T1 sequence (Q9H2X9 1-1116 isoform Q9H2X9-2): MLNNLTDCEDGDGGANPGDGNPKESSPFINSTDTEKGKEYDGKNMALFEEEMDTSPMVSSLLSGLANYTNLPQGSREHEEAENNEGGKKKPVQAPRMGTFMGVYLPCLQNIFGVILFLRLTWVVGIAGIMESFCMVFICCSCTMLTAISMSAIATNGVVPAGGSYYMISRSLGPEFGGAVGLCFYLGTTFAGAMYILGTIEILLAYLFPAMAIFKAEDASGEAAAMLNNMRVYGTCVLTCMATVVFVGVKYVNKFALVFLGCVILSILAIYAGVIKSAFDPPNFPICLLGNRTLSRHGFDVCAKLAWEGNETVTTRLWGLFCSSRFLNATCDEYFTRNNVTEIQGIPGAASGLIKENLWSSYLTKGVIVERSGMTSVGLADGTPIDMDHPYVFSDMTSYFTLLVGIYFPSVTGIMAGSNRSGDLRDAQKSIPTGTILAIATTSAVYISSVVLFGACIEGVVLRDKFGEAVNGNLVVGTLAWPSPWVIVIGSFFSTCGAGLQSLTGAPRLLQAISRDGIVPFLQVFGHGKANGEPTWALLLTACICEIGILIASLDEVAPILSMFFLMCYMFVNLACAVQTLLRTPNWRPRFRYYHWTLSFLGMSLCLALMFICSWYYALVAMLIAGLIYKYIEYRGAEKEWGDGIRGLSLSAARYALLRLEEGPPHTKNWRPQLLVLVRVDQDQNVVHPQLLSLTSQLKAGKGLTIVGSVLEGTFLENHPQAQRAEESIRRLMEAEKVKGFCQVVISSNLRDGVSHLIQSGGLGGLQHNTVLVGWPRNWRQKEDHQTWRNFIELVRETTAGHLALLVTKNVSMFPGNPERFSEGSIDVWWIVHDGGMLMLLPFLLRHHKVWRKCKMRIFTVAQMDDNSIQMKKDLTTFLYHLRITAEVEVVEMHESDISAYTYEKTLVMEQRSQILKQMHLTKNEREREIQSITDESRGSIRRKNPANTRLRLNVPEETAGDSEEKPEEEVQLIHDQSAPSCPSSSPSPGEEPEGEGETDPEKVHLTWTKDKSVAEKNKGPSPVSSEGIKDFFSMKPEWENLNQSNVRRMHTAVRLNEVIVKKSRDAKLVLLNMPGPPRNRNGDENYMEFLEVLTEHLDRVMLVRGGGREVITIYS
# Protocol: A multi-tiered high-throughput screening assay was used, leveraging a proprietary library of 1.3 million small molecule compounds from AstraZeneca (Cambridge, UK) to identify chemical entities capable of activating KCC2. A single point concentration of 30 μM was used to identify potassium flux using an established thallium (TI+) influx FLIPR assay as the primary read out in HEK-293 cells overexpressing KCC2 (Cardarelli et al., Nat. Med. 23, 1394-1396 (2017); Conway et al., J Biol Chem 292, 21253-21263 (2017); Lee et al., 2022, supra).
# Cell Culture and biotinylation. […]
# FLIPR TI Flux assay. HEK-293 cells were washed with HBSS, and then incubated with loading buffer containing TI sensitive fluorescent dye (https://www.moleculardevices.com), 20 μM bumetanide 20 μM ouabain and 2.5 mM probenecid for 1 h at room temperature (RT) under control conditions or with drugs in the dark using a FlexStation 3 microplate reader (Molecular Devices) and imaged […] for 30 min. Stimulus buffer was added containing 5 mM K^+/0.5 mM Tl^+ and cells were imaged every 1.5 over a 190 second time course The initial rate Tl^+ uptake (Relative Fluorescence Units (RFU) per second) was determined following addition of the stimulus buffer as outlined previously (Conway et al., 2017, supra) (Lee et al., 2022, supra). […]
# acute brain slices = experiment: Late recurrent discharges in acute brain slices exposed to 0-Mg
# hippocampus = experiment: Neuronal cell death in the hippocampus, Compound A with diazepam; assay type: in vivo; settings: mice, Compound A and diazepam vs diazepam alone
compound,measurement,setting,value
"C[C@@H]1CN(c2nc3c(c(Nc4ccc(C5CCCCC5)cc4)n2)COC3)CCO1 [Compound A, (R)—N-(4-cyclohexylphenyl)-2-(2-methylmorpholino)-5,7-dihydrofuro[3,4-d]pyrimidin-4-amine]",maximum potentiation of KCC2,KCC2,90%
same,development of late recurrent discharges (LRDs),acute brain slices,reduced
same,neuronal cell death in the hippocampus,hippocampus,significantly reduced
